The values below come from patent US6696447B2, “Hydroxyphenyl-piperazinyl-methyl-benzamide derivatives for the treatment of pain” (AstraZeneca AB, priority 2000, dated 2004).

For orientation: Emax means the maximal effect, on the per cent scale that the assay sets.

Format in all cases: biochemical
For assay [1], the target named is T1, delta receptors, rat brain membranes (Rattus norvegicus, UniProt P33533).
T1 construct: from tissue; host or cells: rat brain homogenate
The experiment in a line: GTP[γ]35S binding functional assay, homogenised rat brain. How it is done:
(§1) B. Mouse and rat brains were weighed and rinsed in ice-cold PBS (containing 2.5 mM EDTA, pH 7.4). The brains were homogenized with a polytron for 15 sec (mouse) or 30 sec (rat) in ice-cold lysis buffer (50 mM Tris, pH 7.0, 2.5 mM EDTA, with phenylmethylsulfonyl fluoride added just prior use to […] from a 0.5M stock in DMSO:ethanol).
(§2) The agonist activity of the compounds is measured by determining the degree to which the compounds receptor complex activates the binding of GTP to G-proteins to which the receptors are coupled. In the GTP binding assay, GTP[γ]^35S is combined with test compounds and membranes from HEK-293S cells expressing the cloned human opioid receptors or from homogenised rat and mouse brain. Agonists stimulate GTP[γ]^35 S binding in these membranes. The EC50 and Emax values of compounds are determined from dose-response curves. Right shifts of the dose response curve by the delta antagonist naltrindole are performed to verify that agonist activity is mediated through delta receptors.
On the technique in general: GTPγS is a poorly hydrolysed GTP analogue; its binding reports G protein activation.

For assay [2], the target named is T2, delta receptors, mouse brain membranes (Mus musculus, UniProt P32300).
T2 construct: from tissue; host or cells: mouse brain homogenate
The experiment in a line: GTP[γ]35S binding functional assay, homogenised mouse brain. How it is done: as §1, §2

The target of assay [3] is T3, human δ receptor (HDELTA) (Homo sapiens, UniProt P41143).
T3 construct: expressed in transfected cells; host or cells: human 293S (HEK-293S) cells, geneticin-selected
The experiment in a line: GTP[γ]35S binding functional assay, HEK-293S membranes expressing cloned human opioid receptor (HDELTA). How it is done: A. Human 293S cells expressing cloned human μ, δ, and κ receptors and neomycin resistance were grown in suspension at 37° C. and 5% CO2 in shaker flasks containing calcium-free DMEM10% FBS, 5% BCS, 0.1% Pluronic F-68, and 600 μg/ml geneticin.
Cells were pelleted and resuspended in lysis buffer (50 mM Tris, pH 7.0, 2.5 mM EDTA, with PMSF added just prior to use to 0.1 mM from a 0.1 M stock in ethanol), incubated on ice for 15 min, then homogenized with a polytron for 30 sec. The suspension was spun at 1000 g (max) for 10 min at 4° C. The supernatant was saved on ice and the pellets resuspended and spun as before. The supernatants from both spins were combined and spun at 46,000 g(max) for 30 min. The pellets were resuspended in cold Tris buffer (50 mM Tris/Ci, pH 7.0) and spun again. The final pellets were resuspended in membrane buffer (50 mM Tris, 0.32 M sucrose, pH 7.0). Aliquots (1 ml) in polypropylene tubes were frozen in dry ice/ethanol and stored at −70° C. until use. The protein concentrations were determined by a modified Lowry assay with sodium dodecyl sulfate.
as §2

T3 sequence (P41143 whole entry): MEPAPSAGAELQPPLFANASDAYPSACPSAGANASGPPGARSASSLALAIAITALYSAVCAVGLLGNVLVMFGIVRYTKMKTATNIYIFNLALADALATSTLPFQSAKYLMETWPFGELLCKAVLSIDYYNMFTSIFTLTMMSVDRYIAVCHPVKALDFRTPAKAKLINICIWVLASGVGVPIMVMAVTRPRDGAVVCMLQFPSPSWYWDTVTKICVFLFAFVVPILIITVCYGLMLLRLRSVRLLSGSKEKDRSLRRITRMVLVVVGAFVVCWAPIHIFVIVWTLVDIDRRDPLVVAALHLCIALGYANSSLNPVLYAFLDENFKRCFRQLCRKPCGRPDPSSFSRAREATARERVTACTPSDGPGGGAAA
T2 sequence (P32300 whole entry): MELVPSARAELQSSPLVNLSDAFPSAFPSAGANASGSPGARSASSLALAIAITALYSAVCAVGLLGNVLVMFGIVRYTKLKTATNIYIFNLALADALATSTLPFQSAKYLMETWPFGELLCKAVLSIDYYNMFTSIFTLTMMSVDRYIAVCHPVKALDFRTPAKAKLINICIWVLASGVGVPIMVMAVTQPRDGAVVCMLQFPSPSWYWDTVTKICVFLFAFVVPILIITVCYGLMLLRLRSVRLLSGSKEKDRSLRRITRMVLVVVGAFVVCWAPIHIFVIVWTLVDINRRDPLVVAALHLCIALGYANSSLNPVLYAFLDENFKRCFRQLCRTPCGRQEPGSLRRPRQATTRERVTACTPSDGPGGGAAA
T1 sequence (P33533 whole entry): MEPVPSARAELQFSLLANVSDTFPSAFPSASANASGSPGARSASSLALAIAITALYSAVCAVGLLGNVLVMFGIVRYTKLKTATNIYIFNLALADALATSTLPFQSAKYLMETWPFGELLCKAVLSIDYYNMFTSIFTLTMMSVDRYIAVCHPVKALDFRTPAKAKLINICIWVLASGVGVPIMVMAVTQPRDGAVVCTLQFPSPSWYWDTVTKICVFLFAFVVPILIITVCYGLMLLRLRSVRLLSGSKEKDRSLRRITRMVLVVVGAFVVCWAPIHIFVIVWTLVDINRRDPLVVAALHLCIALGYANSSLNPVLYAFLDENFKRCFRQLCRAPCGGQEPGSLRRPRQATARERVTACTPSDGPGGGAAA

`CCN(CC)C(=O)c1ccc(C(c2cccc(O)c2)N2CCN(Cc3ccco3)CC2)cc1` (stereo not drawn) [Example 1, N,N-diethyl-4-[[4-(2-furylmethyl)-1-piperazinyl](3-hydroxyphenyl)methyl]benzamide]: the maximum response (Emax) in assay [1] came to 130%; in assay [2], 113%; in assay [3] it was 94.8%.
The corresponding values for `CCN(CC)C(=O)c1ccc(C(c2cccc(O)c2)N2CCN(Cc3cccs3)CC2)cc1` (stereo not drawn) [Example 2, N,N-diethyl-4-{(3-hydroxyphenyl)[4-(2-thienylmethyl)-1-piperazinyl]methyl}benzamide] are 120%, 118% and 105%.
The corresponding values for `CCN(CC)C(=O)c1ccc(C(c2cccc(O)c2)N2CCN(Cc3ccsc3)CC2)cc1` (stereo not drawn) [Example 3, N,N-diethyl-4-{(3-hydroxyphenyl)[4-(3-thienylmethyl)-1-piperazinyl]methyl}benzamide] are 128%, 122% and 114%.
